Test results: article PMC12775819, “Optimizing PSMA-617-based inhibitors through charged linker modifications: Insights into structure-activity relationships” (Theranostics, 2026)
Values belong to the compound of their own block, whether it stands above or below them. Non-standard residues stand in square brackets, D forms with d. Residues, ends and D or L forms follow the SMILES beside them. *: point of attachment. DOTA = O=C(O)CN1CCN(CC(=O)O)CCN(CC(=O)*)CCN(CC(=O)O)CC1; EuK = O=C(O)CC[C@H](NC(=O)N[C@@H](CCCCN*)C(=O)O)C(=O)O; 2Nal = N[C@@H](Cc1ccc2ccccc2c1)C(=O)O; Trx = NC[C@H]1CC[C@H](C(=O)O)CC1

Experiments:
PSMA = molecular target: T1, PSMA (Homo sapiens, UniProt Q04609); assay: Competitive cell binding (IC50) against [68Ga]Ga-PSMA-10 on LNCaP cells; details: unlabeled precursors vs [68Ga]Ga-PSMA-10 (0.8 nM), 45 min, room temperature, ± SD
T1 construct: incubated with [^68Ga]Ga-PSMA-10 (0.8 nM) and LNCaP cells (10^5 cells/well) for 45 min at room temperature; host or cells: LNCaP (human prostate carcinoma lymph node metastasis)
Method: (§1) The PSMA-positive human cell line LNCaP (human lymph node carcinoma of the prostate; ATCC CRL-1740) was cultivated adherently at 37 °C and humidified 5% CO2 with RPMI-1640 (Thermo Fisher Scientific, Germany) supplemented with 10% fetal bovine serum (Sigma-Aldrich, Germany), 1% sodium pyruvate (Life Technologies, Germany) and 1% penicillin/[…] (Thermo Fisher Scientific, Germany). A mixture of trypsin/ethylenediaminetetraacetic acid (0.05% / 0.02%; Thermo Fisher Scientific, Germany) was used for cell harvesting (last authentication: April 2024).
To determine the binding affinity of the investigated compounds, competitive cell binding studies were performed with ^68Ga-labeled PSMA-10. Dilution series of twelve concentrations in medium were prepared from the precursor peptides PS1 - PS11 including concentrations of 0, 0.5, 1, 2.5, 5, 10, 25, 50, 100, 500, 1,000, and 5,000 nM. The assay was performed on 96-well filter plates (Merck, Darmstadt, Germany). Medium (100 µl per well) was added before the experiment and incubated for 1 h at room temperature to block non-specific binding. The medium was removed and the diluted compounds were incubated with [^68Ga]Ga-PSMA-10 (0.8 nM) and LNCaP cells (10^5 cells/well) for 45 min at room temperature (total volume 100 µl/well). Cells were washed with PBS buffer (2× 100 µl, 1× 200 µl) over a MultiScreen 96-well vacuum filtration system (Merck Millipore, Billerica, USA). The filters containing the retained cells were punched out and the radioactivity was quantified using a γ-counter. By applying a non-linear regression algorithm (GraphPad Prism 8.0.1., Boston, USA), the specific inhibitory concentration of 50% (IC50) could be determined. The experiment was repeated at least three times per compound and the data presented as IC50 ± standard deviation.

[1] = Partition coefficient (logD), n-octanol/PBS pH 7.4; format: physicochemical; details: 68Ga-labeled compounds, mean ± SD; for logD: read-out: Partition Coefficient [logDoctanol/PBS]
Method: To determine the lipophilicity expressed as distribution coefficient (logD), a two-phase system of n-octanol (500 µl) and phosphate buffered saline (PBS) (490 µl) at pH 7.4 was used (n = 4). Compounds were radiolabeled with [^68Ga]Ga^3+ and the mixture diluted to a concentration of 0.25 µM in PBS. 10 µl of the 0.25 µM dilution were added to the n-octanol / PBS mixture. After extensive mixing, the 2-phase system was centrifuged for 10 min at 14,000 rpm and 4 °C. Two samples from each phase (100 µl) were taken and measured in a γ-gamma counter (PerkinElmer, Waltham, USA). […] The data is presented as the mean value with the standard deviation (SD).

in vivo [2] = details: male, BALB/c nu/nu, mouse, iv, 500 pmol, total radioactivity
[3] = test system: PSMA-positive LNCaP cells; assay: Surface binding and internalization of 68Ga-labeled compounds; format: cell-based, human; details: for Internalization Block / Surface Binding Block / Internalization / Surface Binding: 30 nM, 45 min, 37 °C; for Internalization Block / Surface Binding Block: blocked with 2-PMPA 500 µM; for Internalization / Surface Binding: unblocked; for Specific Internalization / Specific Surface Binding: difference of unblocked and blocked values
Method: as §1
Internalization assays were performed on poly-L-lysine coated 24-well cell culture plates. The day before the experiment, LNCaP cells (10^5 cells/well) were harvested and seeded to the wells. The cells were incubated with the ^68Ga-labeled compounds (250 µl, 30 nM, diluted in RPMI medium) for 45 min at 37 °C. […] The medium was then removed and the cells washed with ice-cold PBS buffer (3 × 1 ml). To remove surface bound compounds, ice-cold glycine buffer (2 × 0.5 ml, 50 mM, pH 2.8) was added to the wells and collected after 5 min in a combined fraction. After washing once with PBS (1 ml), NaOH (0.5 ml, 0.3 M) was added to the cells for lysation. Collected surface-bound, internalized fractions and standards from the stock solutions (25 µl) were measured in a γ-counter. Data was normalized and presented as percentage of the initially added radioactivity bound to 10^5 cells [%IA/10^5 cells].

[4] = test system: LNCaP xenograft-bearing BALB/c nu/nu mice; assay: Static small-animal PET imaging 1 h and 2 h p.i.; details: 68Ga-labeled, 0.5 nmol i.v., n = 1, SD from VOIs
[5] = Static small-animal PET imaging 1 h and 2 h p.i.; details: male, BALB/c nu/nu, mouse, tumor / kidney, iv, 500 pmol, total radioactivity
in vivo [6] = details: male, BALB/c nu/nu, mouse, iv, 500 pmol, total radioactivity; remark: listed apart in the source
in vitro = in vitro ADME; details: mouse, serum
Method: Incubation in human and murine serum (BioIVT, United Kingdom) was used to determine the stability of the described precursors. First, the substances were labeled with [^177Lu]Lu^3+ and added to 100 µl of pre-warmed serum (0.5 nmol, 3 - 10 MBq). The reaction mixture was incubated at 37 °C and 10 µl samples were taken at regular intervals (0, 6, 24, 48, 72 h). After precipitation of the proteins by the addition of 30 µl of acetonitrile, the probes were centrifuged for 2 min at 14,000 rpm and the stability determined by analytical radio-HPLC of the […].

T1 sequence (Q04609 whole entry): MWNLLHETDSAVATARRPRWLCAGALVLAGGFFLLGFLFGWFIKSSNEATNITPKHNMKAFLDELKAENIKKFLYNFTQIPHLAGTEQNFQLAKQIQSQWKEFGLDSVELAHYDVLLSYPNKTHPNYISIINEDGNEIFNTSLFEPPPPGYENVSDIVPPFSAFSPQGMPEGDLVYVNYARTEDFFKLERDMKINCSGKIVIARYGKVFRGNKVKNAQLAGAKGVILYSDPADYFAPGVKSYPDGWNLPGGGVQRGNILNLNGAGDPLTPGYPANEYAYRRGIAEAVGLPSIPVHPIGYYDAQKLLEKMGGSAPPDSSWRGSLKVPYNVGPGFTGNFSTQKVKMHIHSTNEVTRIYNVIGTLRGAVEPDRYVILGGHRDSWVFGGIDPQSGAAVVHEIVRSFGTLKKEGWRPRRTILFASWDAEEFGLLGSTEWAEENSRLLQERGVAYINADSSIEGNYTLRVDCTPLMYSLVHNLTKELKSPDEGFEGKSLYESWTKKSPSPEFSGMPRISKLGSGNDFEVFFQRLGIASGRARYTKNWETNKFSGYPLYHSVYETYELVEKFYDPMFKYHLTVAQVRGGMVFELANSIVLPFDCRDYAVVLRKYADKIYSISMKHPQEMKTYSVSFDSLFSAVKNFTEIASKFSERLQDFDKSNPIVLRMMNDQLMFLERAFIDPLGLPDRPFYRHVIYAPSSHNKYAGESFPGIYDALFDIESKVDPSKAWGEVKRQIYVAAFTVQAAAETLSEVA

Structure (SMILES): O=C(O)CC[C@H](NC(=O)N[C@@H](CCCCNC(=O)[C@H](Cc1ccc2ccccc2c1)NC(=O)[C@H](Cc1c[nH]cn1)NC(=O)[C@H](CCC(=O)O)NC(=O)[C@H](Cc1c[nH]cn1)NC(=O)[C@H](CCC(=O)O)NC(=O)[C@H](Cc1c[nH]cn1)NC(=O)[C@H](CCC(=O)O)NC(=O)[C@H]1CC[C@H](CNC(=O)CN2CCN(CC(=O)O)CCN(CC(=O)O)CCN(CC(=O)O)CC2)CC1)C(=O)O)C(=O)O [[^68Ga]Ga-PS2, metal not drawn] ({DOTA-Trx}-EHEHEH[2Nal]-EuK)
tissue to tissue ratio at 1 h [5]: 0.47 ± 0.14 | tissue to tissue ratio at 2 h [5]: 0.73 ± 0.14

Structure (SMILES): O=C(O)CC[C@H](NC(=O)N[C@@H](CCCCNC(=O)[C@H](Cc1ccc2ccccc2c1)NC(=O)[C@H]1CC[C@H](CNC(=O)[C@H](CCC(=O)O)NC(=O)[C@H](CCC(=O)O)NC(=O)[C@H](CCC(=O)O)NC(=O)CN2CCN(CC(=O)O)CCN(CC(=O)O)CCN(CC(=O)O)CC2)CC1)C(=O)O)C(=O)O [[^68Ga]Ga-PS8, metal not drawn] ({DOTA}-EEE[Trx][2Nal]-EuK)
SUV at 1 h (in vivo [6]): 1.17 SUV | tissue to tissue ratio at 1 h (in vivo [2]): 16.2 ± 0.27

Structure (SMILES): O=C(O)CC[C@H](NC(=O)N[C@@H](CCCCNC(=O)[C@H](Cc1ccc2ccccc2c1)NC(=O)[C@H]1CC[C@H](CNC(=O)[C@H](Cc2c[nH]cn2)NC(=O)[C@H](Cc2c[nH]cn2)NC(=O)[C@H](Cc2c[nH]cn2)NC(=O)CN2CCN(CC(=O)O)CCN(CC(=O)O)CCN(CC(=O)O)CC2)CC1)C(=O)O)C(=O)O [[^68Ga]Ga-PS11, metal not drawn] ({DOTA}-HHH[Trx][2Nal]-EuK)
tissue to tissue ratio at 1 h (in vivo [6]): 0.633 | tissue to tissue ratio at 1 h (in vivo [2]): 0.66 ± 0.15 | tissue to tissue ratio at 2 h (in vivo [2]): 1.15 ± 0.27

Structure (SMILES): O=C(O)CC[C@H](NC(=O)N[C@@H](CCCCNC(=O)[C@H](Cc1c[nH]cn1)NC(=O)[C@H](Cc1c[nH]cn1)NC(=O)[C@H](Cc1c[nH]cn1)NC(=O)[C@H](Cc1ccc2ccccc2c1)NC(=O)[C@H]1CC[C@H](CNC(=O)CN2CCN(CC(=O)O)CCN(CC(=O)O)CCN(CC(=O)O)CC2)CC1)C(=O)O)C(=O)O [[^177Lu]Lu-PS9, metal not drawn] ({DOTA-Trx}-[2Nal]HHH-EuK)
metabolised at 24 h, 5 µM (in vitro): ~40%

Structure (SMILES): O=C(O)CC[C@H](NC(=O)N[C@@H](CCCCNC(=O)[C@H](Cc1ccc2ccccc2c1)NC(=O)[C@H](Cc1c[nH]cn1)NC(=O)[C@H](Cc1c[nH]cn1)NC(=O)[C@H](Cc1c[nH]cn1)NC(=O)[C@H]1CC[C@H](CNC(=O)CN2CCN(CC(=O)O)CCN(CC(=O)O)CCN(CC(=O)O)CC2)CC1)C(=O)O)C(=O)O [[^177Lu]Lu-PS10, metal not drawn] ({DOTA-Trx}-HHH[2Nal]-EuK)
remaining at 48 h, 5 µM (in vitro): 64%

Second part, led by results:

IC50 (PSMA): 0.037 ± 0.0114 µM | logD [1]: -3.6 ± 0.3 | SUV at 1 h (in vivo [2]; SUV kidneys): 3.05 ± 0.01 SUV | SUV at 2 h (in vivo [2]; SUV kidneys): 1.56 ± 0.13 SUV | SUV at 1 h (in vivo [2]; SUV muscle): 0.13 ± 0.03 SUV | SUV at 2 h (in vivo [2]; SUV muscle): 0.1 ± 0.01 SUV | SUV at 1 h (in vivo [2]; SUV tumor): 0.93 ± 0.08 SUV | SUV at 2 h (in vivo [2]; SUV tumor): 0.92 ± 0.06 SUV
Structure (SMILES): O=C(O)CC[C@H](NC(=O)N[C@@H](CCCCNC(=O)[C@H](Cc1ccc2ccccc2c1)NC(=O)[C@H]1CC[C@H](CNC(=O)[C@H](Cc2c[nH]cn2)NC(=O)[C@H](CCC(=O)O)NC(=O)[C@H](Cc2c[nH]cn2)NC(=O)[C@H](CCC(=O)O)NC(=O)[C@H](Cc2c[nH]cn2)NC(=O)[C@H](CCC(=O)O)NC(=O)CN2CCN(CC(=O)O)CCN(CC(=O)O)CCN(CC(=O)O)CC2)CC1)C(=O)O)C(=O)O [PS3, EuK-NaI-ChX-(HE)3-DOTA] ({DOTA}-EHEHEH[Trx][2Nal]-EuK)
Internalization Block [3]: 0.112 ± 0.022 %Binding / %Internalization | Surface Binding Block [3]: 0.069 ± 0.129 %Binding / %Internalization | Internalization [3]: 0.67 ± 0.14 %Binding / %Internalization | Surface Binding [3]: 1.32 ± 0.11 %Binding / %Internalization | Specific Internalization [3]: 0.56 ± 0.42 %Binding / %Internalization | Specific Surface Binding [3]: 1.26 ± 1.97 %Binding / %Internalization

IC50 (PSMA): 0.0467 ± 0.0373 µM | logD [1]: -3.74 ± 0.05 | SUV at 1 h (in vivo [2]; SUV kidneys): 3.13 ± 0.16 SUV | SUV at 2 h (in vivo [2]; SUV kidneys): 2.37 ± 0.27 SUV | SUV at 1 h (in vivo [2]; SUV muscle): 0.12 ± 0.02 SUV | SUV at 2 h (in vivo [2]; SUV muscle): 0.09 ± 0.02 SUV | SUV at 1 h (in vivo [2]; SUV tumor): 0.86 ± 0.06 SUV | SUV at 2 h (in vivo [2]; SUV tumor): 0.94 ± 0.07 SUV
Structure (SMILES): O=C(O)CC[C@H](NC(=O)N[C@@H](CCCCNC(=O)[C@H](Cc1ccc2ccccc2c1)NC(=O)[C@H]1CC[C@H](CNC(=O)[C@H](Cc2c[nH]cn2)NC(=O)[C@H](CCC(=O)O)NC(=O)[C@H](Cc2c[nH]cn2)NC(=O)[C@H](CCC(=O)O)NC(=O)[C@H](Cc2c[nH]cn2)NC(=O)[C@H](CCC(=O)O)NC(=O)[C@H](Cc2c[nH]cn2)NC(=O)[C@H](CCC(=O)O)NC(=O)CN2CCN(CC(=O)O)CCN(CC(=O)O)CCN(CC(=O)O)CC2)CC1)C(=O)O)C(=O)O [PS5, EuK-NaI-ChX-(HE)4-DOTA] ({DOTA}-EHEHEHEH[Trx][2Nal]-EuK)
Internalization Block [3]: 0.155 ± 0.022 %Binding / %Internalization | Surface Binding Block [3]: 0.082 ± 0.029 %Binding / %Internalization | Internalization [3]: 0.67 ± 0.06 %Binding / %Internalization | Surface Binding [3]: 1.41 ± 0.10 %Binding / %Internalization | Specific Internalization [3]: 0.51 ± 0.25 %Binding / %Internalization | Specific Surface Binding [3]: 1.33 ± 0.42 %Binding / %Internalization

SUV kidneys ([4]; static PET 1 h p.i.): 1.25 ± 0.14 g/mL | SUV muscle ([4]; static PET 1 h p.i.): 0.073 ± 0.004 g/mL | SUV tumor ([4]; static PET 1 h p.i.): 0.63 ± 0.02 g/mL | SUV kidneys ([4]; static PET 2 h p.i.): 0.28 ± 0.06 g/mL | SUV muscle ([4]; static PET 2 h p.i.): 0.02 ± 0.01 g/mL | SUV tumor ([4]; static PET 2 h p.i.): 0.52 ± 0.16 g/mL | IC50 (PSMA): 0.0218 ± 0.00313 µM | Partition Coefficient [logDoctanol/PBS] [1]: -2.7 ± 0.2
Structure (SMILES): O=C(O)CC[C@H](NC(=O)N[C@@H](CCCCNC(=O)[C@H](Cc1ccc2ccccc2c1)NC(=O)[C@H]1CC[C@H](CNC(=O)CN2CCN(CC(=O)O)CCN(CC(=O)O)CCN(CC(=O)O)CC2)CC1)C(=O)O)C(=O)O [PSMA-617, EuK-NaI-ChX-DOTA]
Internalization Block [3]: 0.210 ± 0.036 %Binding / %Internalization | Surface Binding Block [3]: 0.062 ± 0.013 %Binding / %Internalization | Internalization [3]: 0.50 ± 0.05 %Binding / %Internalization | Surface Binding [3]: 0.79 ± 0.13 %Binding / %Internalization | Specific Internalization [3]: 0.28 ± 0.27 %Binding / %Internalization | Specific Surface Binding [3]: 0.72 ± 0.38 %Binding / %Internalization
